Measured values published in paper PMC8162438, “Cancer cell-selective modulation of mitochondrial respiration and metabolism by potent organogold(III) dithiocarbamates” (Chemical Science, 2020).

Test system: MRC5
Assay: MTT cell viability, human fetal lung fibroblasts MRC5
Assay type: cell-based
Conditions: 72 h
Description: All the gold(III) dithiocarbamate compounds display remarkable cell killing potential in a panel of breast, ovarian, lung and leukemia cancers. Preliminary studies focused on different cancer cell lines (MDA-MB-231, MDA-MB-175, and A2780), an immortalized normal retinal epithelial cell line (RPE-NEO) and human fetal lung fibroblasts (MRC5) (Fig. S111–S129 ^†). These adherent cells were exposed to a serial-diluted concentration of all ten compounds for 72 h. The cells were subsequently treated with 3-(4,5-dimethylthiazol-2-yl)-2,5-diphenyltetrazolium bromide (MTT) solutions, dissolved with DMSO and the absorbance at 570 nm was measured with a plate-reader.
In Vitro Biological Assays
Cell Culture. All cell lines were purchased from ATCC and routinely grown in a humidified incubator at 37 °C with 5-10% CO 2. MDA-MB-231, MDA-MB-175, MRC5, RPE-NEO, H460, and K562 were grown in DMEM supplemented with 10% FBS, 1% amphotericin and 1% penicillin/streptomycin. A2780 cells were grown in RPMI supplemented with 10% FBS, 1% amphotericin, and 1% penicillin/streptomycin, and 4 mM glutamine. All supplements along with PBS and trypsin-EDTA were purchased from Corning Inc. and used as is. […]
Cell Viability of 1a-1e and 2a-2e (Adherent Cell Lines). The cell viability of all 10 complexes were performed in MDA-MB-231, MDA-MB-175, A2780, RPE-NEO and MRC5. The cell viability of compound 2a was also determined in H460. Cells were grown to confluency and trypsin was added to detach and harvest cells. The cells were washed with 2 mL of PBS and suspended in 10 mL of the appropriate media. The cells were centrifuged at 2000 rpm for 5 minutes and the pellet washed with 2 mL of PBS then suspended in 5 mL of the appropriate […]
media. The cells were plated at a density of 2,000 cells/well in a 96-well clear bottom plate and allowed to adhere overnight at 37 °C with 5-10% CO 2. The compounds were prepared as a stock in DMSO and used fresh. The compounds were added at seven concentrations with a 3x serial dilution starting at 50 µM for the highest concentration and incubated at 37 °C for 72 h with 5-10% CO 2. The medium was removed and a solution of MTT (100 µL, prepared by dissolving MTT at 5 mg/mL and diluting by 10x with DMEM) was added to each well and incubated for 4 h at 37 ° C with 5-10% CO 2. The dye was removed from each well and 100 µL of DMSO was added to induce cell lysis. The plates were read using a Genios plate reader (λ = 570 nm). The experiment was performed in triplicate and data are plotted as the mean ± s.e.m. (n = 3). Data for 2a can be found in the main text (Figure 6) and the other complexes can be seen in the supplementary figures (S111 – S129). […]
Cells were grown to confluency and centrifuged at 2000 rpm for 5 minutes to collect the cell pellet. The cells were washed with 5 mL of PBS, suspended in 5 mL of DMEM, and centrifuged again at 2000 rpm for 5 minutes to collect the pellet. The pellet was then washed with 2 mL of PBS and suspended in 5 mL of DMEM. The cells were plated at density of 2,000 cells/well in a 96-well white bottom plate. 2a was prepared as a stock solution […]
10% CO 2. The cells were removed from the incubator and allowed to rest at room temperature for 30 minutes. To each designated well was then added 20 µL of CellTiter-Glo solution and orbitally shaken for 5 minutes and the luminescence (1000 ms integration and 150 ms gain) acquired on a Genios plate reader. The experiment was performed in triplicate. Data are plotted […]
Apoptosis Analysis. […]
A stock of 2a was prepared fresh in DMSO and added to the desired well at a concentration of 1 µM with a final volume of 2.5 mL and incubated for 4 h at 37 °C. A stock of H2O2 was prepared in PBS and the cells treated at a final concentration of 2 mM for 1 hour as a […]

SMILES	IC50
C[N+](C)=C1[S][Au-2]2([S]1)[c]1ccccc1Cc1cccc[n+]12.F[P-](F)(F)(F)(F)F (centres unmarked) [2a]	> 50 µM
C[N+](C)=C1[S][Au-2]2([S]1)[c]1ccccc1C(=O)c1cccc[n+]12.F[P-](F)(F)(F)(F)F (centres unmarked) [1a]	> 50 µM
